Data from patent publication US12324841B2, “Methods of treating cancer with a combination of an anti-PD-1 antibody and an anti-tissue factor antibody-drug conjugate” (GENMAB A/S, priority 2018, dated 2025).
Entries after “also recorded” stand apart in the source; their conditions may differ. Non-standard residues stand in square brackets, D forms with d. Residues, ends and D or L forms follow the SMILES beside them. *: point of attachment. Dolaproine = CO[C@@H]([C@@H]1CCCN1)[C@@H](C)C(=O)O; Dil = CC[C@H](C)[C@H](NC)[C@@H](CC(=O)O)OC; X1 = C[C@@H](N*)[C@@H](O)c1ccccc1; NMeV = CN[C@H](C(=O)O)C(C)C

How the values were obtained:
HeLa cells [1] = assay: Imaging of RFP-labeled tubulin and ER-binding dye in HeLa cells treated with MMAE; type: cell-based; conditions: 100 nM MMAE
Description: Treatment of HeLa cells with MMAE led to disassembly of the microtubule network and subsequent ER mislocalization. HeLa cells were transduced with a baculovirus encoding RFP-labeled Tubulin (CellLight Tubulin-RFP, ThermoFisher Scientific) and an ER-binding dye (ER-ID Green, Enzo Life Sciences). Cells were treated with 100 nM MMAE and imaged over time in the present of MMAE. Within 2 hours, fragmentation and disassembly of the microtubule network became evident, concurrent with the breakdown of the perinuclear organized ER lattice (FIGS. 2A and 2B). The condensed and mislocalized ER skeleton indicated severe ER stress within 8 hours.

HeLa cells [2] = assay: ATP and HMGB1 secretion from HeLa cells treated with MMAE; type: cell-based; conditions: 100 nM MMAE, over 24 hours, vs untreated HeLa cells
Description: Induction of ICD is also characterized by the secretion of ATP and HMGB1. Extracellular ATP serves as a strong chemotactic signal, promoting immune cell migration to the tumor site. Upon arrival, extracellular HMGB1 signals through various pro-inflammatory receptors (TLR2, TLR4, RAGE) to activate antigen-presenting cells, thereby promoting immune activity within the tumor.

[3] = tested on: MDA-MB-231 (breast cell carcinoma); assay: Western blot analysis of ER stress induction in MDA-MB-231 cells; type: cell-based; conditions: MDA-MB-231, 18 hours (legend: 16 hours)
Description: (§1) Induction of cell death and release of ICD danger signals occurs concomitant with initiation of an ER stress response. Two Tissue Factor positive cell lines, HPAFII (pancreatic carcinoma) and MDA-MB-231 (breast cell carcinoma) were exposed to tisotumab vedotin ADC, an Isotype-MMAE ADC (H00-MMAE, IgG1 MMAE), or free MMAE for 18 hours and induction of ER stress monitored by western blot analysis. Phosphorylation of inositol-requiring transmembrane kinase/endonuclease 1 (IRE1) was detected after treatment with tisotumab vedotin ADC or MMAE free drug (FIG. 6). […] The ability for auristatins to prime the immune system to recognize tumor antigens opens the door for a myriad of combinatorial therapeutic options.

[4] = tested on: Tissue Factor positive cell lines; assay: Cell death and release of ATP and HMGB1 from Tissue Factor positive cell lines; type: cell-based
Description: Auristatin ADC payloads disrupt the microtubule networks resulting in altered ER localization and function, which ultimately results in ER stress.

T cells = assay: T cell activation in CSFE labeled PBMCs fed killed MDA-MB-231 cells, with or without pembrolizumab; type: cell-based, human; conditions: 48 hours; for T cell proliferation (CSFE dilution) / production of IFNγ / production of IL12p70: without pembrolizumab
Description: FIG. 8A-8C is a series of graphs in which Tissue Factor positive MDA-MB-231 cells killed with various agents were fed to CSFE labeled human peripheral blood mononuclear cells (PBMCs) in the presence or absence of the PD1 targeting antibody pembrolizumab for 48 hours and T cells activation assessed by A) decreased CSFE fluorescent indicative of T cell proliferation and B) and C) cytokine production.
Induction of the innate immune response following exposure to cancer cells undergoing ICD sets up secondary T cell activation, which can be enhanced by concomitant pembrolizumab treatment.

HeLa cells [5] = assay: Western blot analysis of ER stress in HeLa cells treated with MMAE; type: cell-based; conditions: 100 nM MMAE for 16 hours
Description: HeLa cells, a cervical cancer cell line, were cultured in Minimum Essential Medium (MEM) with 10% FBS, 10 mM HEPES, 1 mM sodium pyruvate, 2 mM L-glutamine, penicillin (100U/ml), and streptomycin (100 μg/ml). HeLa cells were treated with 100 nM MMAE for 16 hours and harvested in radioimmunoprecipitation assay buffer (RIPA) buffer for western blot analysis. […] Severe ER stress is a prerequisite to the exposure of pro-phagocytic signals on the surface of tumor cells, and can be indicated by activation of JNK signaling by phosphorylated IRE1.

[6] = tested on: HPAFII (pancreatic carcinoma); assay: Western blot analysis of ER stress induction in HPAFII cells; type: cell-based; conditions: 18 hours (legend: 16 hours)
Description: as §1

[7] = tested on: CD14+ monocyte/macrophages; assay: Monocyte/macrophage activation in PBMCs fed killed MDA-MB-231 cells; type: cell-based, human
Description: FIGS. 7A and 7B is a series of graphs in which Tissue Factor positive MDA-MB-231 cells killed with various agents were fed to human peripheral blood mononuclear cells (PBMCs) and immune activation assessed by increased expression of activations markers on innate CD14+ monocyte/macrophages and induction of chemokine and cytokine production.
Immunogenic cell death, as mediated by MMAE, is regulated cell death that activates adaptive immune responses against antigens from dead and dying tumor cells, and allows for the generation of robust innate immune cell activation and subsequent cytotoxic T cell responses targeted towards specific tumor cell antigens. […] Furthermore, these monocyte/macrophages conditioned by ICD-killed cells promote activation of T cells, as evidenced by production of signature inflammatory cytokines associated with cytotoxic T cell responses.

[8] = tested on: murine tumor cells that stably express human TF; assay: Syngeneic tumor model: immunization with drug-killed human TF positive murine tumor cells, then tumor challenge; type: in vivo, Balb/c mice; conditions: mice immunized with tumor cells killed by 1-5 μg per ml tisotumab vedotin or 100 nM MMAE
Description: Mouse tumor cells are transfected with plasmid constructs encoding human tissue factor (TF) and sgRNA-guided Cas9 nuclease (sgRNA/Cas9) to generate a murine cell line that expresses the human TF. Fluorescence activated cell sorting (FACS) yields a clonal population of murine tumor cells that stably express human TF, these cells are then treated with 1 μg to 5 μg per ml of tisotumab vedotin or 100 nM of MMAE for 4 days. In order to prepare dying cells for immunization, treated murine tumor cells are overlaid atop Histopaque, and centrifuged at 2000 g for 30 minutes. Dead and dying cells are pelleted underneath the Histopaque layer, and viability assessed by trypan blue exclusion. A sample with approximately <20% live cells as measured by trypan blue exclusion is obtained. Flash-frozen tumor cells are prepared by submerging the cells in liquid nitrogen for 10 seconds, followed by immersion in 37° C. water until completely thawed. The liquid nitrogen freeze-thaw process is repeated 5 times. Dead and dying human TF positive tumor cells are resuspended in phosphate buffered saline (PBS) and 2×10^6 cells are injected into the peritoneum of immune-competent Balb/c mice. Seven days later, mice receive a second immunization with dead and dying cells prepared in the same manner.
Fourteen days after initial immunization with the dead and dying human TF positive tumor cells, mice are subcutaneously implanted with 5×10^6 wild-type tumor cells and monitored for tumor growth. […] As these effects occur in the absence of any administered therapeutic agent, the administration of cells killed by tisotumab vedotin or MMAE is sufficient to generate long-lasting protective immune memory against subsequent tumor cell challenge. Protective immune memory is amplified by treating these mice with tisotumab vedotin in combination with an antibody that binds to murine PD-1.

advanced cervical cancer [9] = conditions: in combination with chemotherapy; cited from earlier work
[10] = managed with interruptions of pembrolizumab, corticosteroids and/or other supportive care; cited from earlier work
advanced cervical cancer [11] = conditions: Pembrolizumab 200 mg Q3W, 82 patients; cited from earlier work
[12] = tested on: MDA-MB-231 cells (breast adenocarcinoma); assay: MDA-MB-231 xenograft model in humanized NSG mice; type: in vivo; conditions: pembrolizumab alone, first dose 10 mg/kg, then 5 mg/kg every five days, IP
Description: Mice were subcutaneously inoculated with 5×10^6 MDA-MB-231 cells (breast adenocarcinoma; American Tissue Culture Collection (ATCC), cat. no. HTB-26), in 100 μL phosphate-buffered saline (PBS). Before inoculation, cells were cultured in DMEM with high glucose and HEPES without L-glutamine (Lonza, cat. no. BE12-[…]), 10% (v/v) donor bovine serum with iron New Zealand Origin (Thermo Fisher Scientific, DBSI, cat. no. 10371-029), 2 mM L-glutamine (Lonza, cat. no. BE17-[…]), 1 mM Na-pyruvate (Lonza, cat. no. BE13-[…]), MEM non-essential amino acids (Life Technologies, cat. no. 11140) and 1% (v/v) penicillin/streptomycin (Lonza, cat. no. DE17-[…]), in CellSTACK culture chambers (Corning, cat. no. 3313). Tumor size was determined by caliper measurement at least two times a week and tumor volume was calculated as 0.52×length×width^2. […] The first dose of the anti-PD-1 antibody (i.e., pembrolizumab) was 10 mg/kg, followed by 5 mg/kg every five days for a maximum of six treatments. […] The IgG1 isotype control antibody is the b12 antibody which is known to bind to HIV-1 gp120. […] Mice were housed in individually ventilated (IVC) cages, five mice per cage and identified by ear tags. […] Statistical comparison of tumor burden was performed using Mann-Whitney analysis on the last day that all treatment groups were intact. Kaplan-Meier analysis was performed based on tumor volume (>500 mm^3).

[13] = compared to IgG1-MMAE ADC or tisotumab alone

CC[C@H](C)[C@@H]([C@@H](CC(=O)N1CCC[C@H]1[C@H](OC)[C@@H](C)C(=O)N[C@H](C)[C@@H](O)c1ccccc1)OC)N(C)C(=O)[C@@H](NC(=O)[C@@H](NC)C(C)C)C(C)C [MMAE, Monomethyl auristatin E, reference compound] (H-[NMeV]V[Dil][Dolaproine]-X1)
time until fragmentation and disassembly of the microtubule network, with breakdown of the perinuclear ER lattice (HeLa cells [1]): ≤ 2 h | time until severe ER stress (condensed and mislocalized ER skeleton) (HeLa cells [1]): ≤ 8 h | secretion of ATP (HeLa cells [2]): increased secretion of ATP and HMGB1 | secretion of HMGB1 (HeLa cells [2]): increased secretion of ATP and HMGB1 | ATF4 cleavage (PERK pathway) [3]: upregulation of ATF4 cleavage | phosphorylation of IRE1 [3]: detected | phosphorylation of JNK [3]: increased phosphorylation | ATP release/secretion ([4]; FIG. 5A): drove robust A) ATP secretion; also recorded: specific to tisotumab vedotin ADC and MMAE treatment | HMGB1 release/secretion ([4]; FIG. 5C): drove robust A) ATP secretion and C) HMGB1 release; also recorded: specific to tisotumab vedotin ADC and MMAE treatment | T cell proliferation (CSFE dilution) (T cells): drove T cell proliferation | production of IFNγ (T cells): production of T cell specific cytokines such as IL12P70 and IFNγ | production of IL12p70 (T cells): production of T cell specific cytokines such as IL12P70 and IFNγ | phosphorylation of IRE1 (HeLa cells [5]): led to phosphorylation of the serine threonine kinase IRE1 | phosphorylation of JNK (HeLa cells [5]): elicited severe ER stress by phosphorylation of IRE1 and JNK | ATF4 cleavage (PERK pathway) [6]: upregulation of ATF4 cleavage | phosphorylation of IRE1 [6]: detected | phosphorylation of JNK [6]: increased phosphorylation | chemotactic and inflammatory mediators from monocyte/macrophages after uptake of dead cells [7]: elicit strong chemotactic and inflammatory mediators | monocyte/macrophage activation, CD86 expression by flow cytometry [7, 13]: drove monocyte/macrophage activations | release of innate chemokines including MIP 1β [7, 13]: induced release of innate chemokines including MIP 1β | survival after challenge with wild-type tumor cells [8]: increased survival | tumor growth after challenge with wild-type tumor cells [8]: delayed tumor growth

tisotumab: anti-TF antibody 011; heavy chain variable region SEQ ID NO:7, light chain variable region SEQ ID NO:8
T cell proliferation (CSFE dilution) (T cells): did not elicit these responses | production of IFNγ (T cells): did not elicit these responses | production of IL12p70 (T cells): did not elicit these responses

Bevacizumab: an anti-VEGF antibody
overall survival in clinical trials (advanced cervical cancer [9]): improved overall survival

pembrolizumab: anti-PD-1 antibody, a checkpoint inhibitor; heavy chain SEQ ID NO:33 and light chain SEQ ID NO:34 [reference compound]
reversibility of immune-related AEs (irAEs) [10]: most irAEs were reversible | objective response rate (advanced cervical cancer [11]): 12% | tumor burden as assessed by tumor volume [12]: hardly reduced tumor burden | T cell proliferation driven by tisotumab vedotin or MMAE killed cells, effect of added pembrolizumab (T cells; 2 mg/ml of pembrolizumab): enhanced | production of IFNγ after tisotumab vedotin or MMAE killed cells, effect of added pembrolizumab (T cells; concomitant pembrolizumab): increased by concomitant pembrolizumab treatment | production of IL12p70 after tisotumab vedotin or MMAE killed cells, effect of added pembrolizumab (T cells; concomitant pembrolizumab): increased by concomitant pembrolizumab treatment
